Earlier results as cited in patent publication US11419848B2, “Combination of unsaponifiable lipids combined with polyphenols and/or catechins for the protection, treatment and repair of cartilage in joints of humans and animals” (NUTRAMAX LABORATORIES, INC., priority 2004, dated 2022).

How the values were obtained:
[1] = test system: IL-1 induced expression of nitric oxide synthase and nitric oxide production
[2] = identified in ethanolic extract of cactus
carrageenan paw oedema = conditions: rats, extracts of Verbena officinalis
[3] = test system: chronic inflammation model; conditions: administered topically and in a chronic inflammation model, mouse

Row | SMILES | IL-1 induced expression of nitric oxide synthase and nitric oxide production [1] | activation of nuclear factor-kB [1] | anti-inflammatory activity [2] | anti-inflammatory activity (carrageenan paw oedema) | anti-inflammatory activity [3]
1 | O=C(O[C@@H]1Cc2c(O)cc(O)cc2O[C@@H]1c1cc(O)c(O)c(O)c1)c1cc(O)c(O)c(O)c1 [EGCG, epigallocatechin gallate] | inhibits | suppresses | – | – | –
2 | CC[C@H](CC[C@@H](C)[C@H]1CC[C@H]2[C@@H]3CC=C4C[C@@H](O)CC[C@]4(C)[C@H]3CC[C@]12C)C(C)C [beta sitosterol] | – | – | anti-inflammatory activity | one of the potent anti-inflammatory agents | potent anti-inflammatory agents
3 | CC[C@H](/C=C/[C@@H](C)[C@H]1CC[C@H]2[C@@H]3CC=C4C[C@@H](O)CC[C@]4(C)[C@H]3CC[C@]12C)C(C)C [stigmasterol] | – | – | – | – | potent anti-inflammatory agents
